Our source for the IC50 values is US20230167127A1, “COMPOUNDS AND THEIR USE IN THE TREATMENT OF BACTERIAL INFECTION” (Hoffmann-La Roche Inc., priority 2020, published 2023).

Counter-ions that a name gives are not always drawn.

The test system of the first assay is Escherichia coli ATCC 25922. Description: 50% growth inhibitory concentration (IC50) determination, Iso-Sensitest broth dilution. It is filed as cell-based. As to conditions: Escherichia coli, ATCC25922, 16 h, strain Escherichia coli ATCC 25922; 10-point broth dilution, optical density at 600 nm over 16 h; read-out: Escherichia coli growth inhibition IC50. Summed up:
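10-point twofold Iso-Sensitest broth dilution (e.g. 50 to 0.097 μM final) with DMSO stocks, incubated at 35±2° C. Growth followed by OD 600 nm every 20 min over 16 h; IC50 derived from growth inhibition during logarithmic phase.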
The IC50 is the midpoint of a concentration-inhibition curve. Regarding `NCCOc1cc(Cl)c2c(c1)CC(CNCCC1CN(c3ccc4c(n3)NC(=O)CO4)C(=O)O1)C2` (stereo not drawn) [Example 177, 6-[5-[2-[[6-(2-aminoethoxy)-4-chloro-2,3-dihydro-1H-inden-2-yl]methylamino]ethyl]-2-oxo-1,3-oxazolidin-3-yl]-4H-pyrido[3,2-b][1,4]oxazin-3-one], the IC50 was below 97.7 nM.
Regarding `NC1c2cccc(Cl)c2CC1CN1CC(C2CN(c3cnc4c(n3)NC(=O)CO4)C(=O)O2)C1` (racemic) [Example 205, 6-[5-[1-[(rac-1,2-trans-1-amino-4-chloro-2,3-dihydro-1H-inden-2-yl)methyl]azetidin-3-yl]-2-oxo-1,3-oxazolidin-3-yl]-4H-pyrazino[2,3-b][1,4]oxazin-3-one], the IC50 came to 123 nM.
As to `Cc1ncc(F)c2c1CC(CNCCC1(C)CN(c3cnc4c(n3)NC(=O)CO4)C(=O)O1)C2` (stereo not drawn) [Example 340, 6-[5-[2-[(4-fluoro-1-methyl-6,7-dihydro-5H-cyclopenta[e]pyridin-6-yl)methylamino]ethyl]-5-methyl-2-oxo-1,3-oxazolidin-3-yl]-4H-pyrazino[2,3-b][1,4]oxazin-3-one], the IC50 was found to be 358 nM.
Same read-out and setting: the value for `Cc1ncc(F)c2c1CC(CNCCC1(CN)CN(c3ccc4c(n3)NC(=O)CO4)C(=O)O1)C2` (stereo not drawn) [Example 242, 6-[5-(Aminomethyl)-5-[2-[(4-fluoro-1-methyl-6,7-dihydro-5H-cyclopenta[c]pyridin-6-yl)methylamino]ethyl]-2-oxo-1,3-oxazolidin-3-yl]-4H-pyrido[3,2-b][1,4]oxazin-3-one] was 778 nM; that for `N#CCOc1cc(F)c2c(c1)CC(CNCCC1CN(c3ccc4c(n3)NC(=O)CO4)C(=O)O1)C2` (stereo not drawn) [Example 73, 2-[[7-fluoro-2-[[2-[2-oxo-3-(3-oxo-4H-pyrido[3,2-b][1,4]oxazin-6-yl)-1,3-oxazolidin-5-yl]ethylamino]methyl]-2,3-dihydro-1H-inden-5-yl]oxy]acetonitrile; formic acid] was below 97.7 nM.
On the same count and under the same terms, the value for `NC1(COc2cc(F)c3c(c2F)CC(CNCCC2CN(c4cnc5c(n4)NC(=O)CO5)C(=O)O2)C3)CC1` (stereo not drawn) [Example 408, 6-[5-[2-[[5-[(1-aminocyclopropyl)methoxy]-4,7-difluoro-2,3-dihydro-1H-inden-2-yl]methylamino]ethyl]-2-oxo-1,3-oxazolidin-3-yl]-4H-pyrazino[2,3-b][1,4]oxazin-3-one; formic acid] was below 97.7 nM.
On the same count and under the same terms, the figure for `Cn1cc(COc2cc(C#N)c3c(c2)CC(CNCCC2CN(c4cnc5c(n4)NC(=O)CO5)C(=O)O2)C3)cn1` (stereo not drawn) [Example 390, 6-[(1-methylpyrazol-4-yl)methoxy]-2-[[2-[2-oxo-3-(3-oxo-4H-pyrazino[2,3-b][1,4]oxazin-6-yl)-1,3-oxazolidin-5-yl]ethylamino]methyl]-2,3-dihydro-1H-indene-4-carbonitrile] is 161 nM; for `O=C1COc2ncc(N3CC(CCNCC4Cc5cc(OCCn6ncnn6)cc(F)c5C4)OC3=O)nc2N1` (stereo not drawn) [Example 348, 6-[5-[2-[[4-fluoro-6-[2-(tetrazol-2-yl)ethoxy]-2,3-dihydro-1H-inden-2-yl]methylamino]ethyl]-2-oxo-1,3-oxazolidin-3-yl]-4H-pyrazino[2,3-b][1,4]oxazin-3-one; formic acid] it is 317 nM.
As for `CNC(=O)COc1ccc2c(c1F)CC(CN1CCC3(CC1)CN(c1cnc4c(n1)NC(=O)CO4)C(=O)O3)C2` (stereo not drawn) [Example 336, 2-[[4-fluoro-2-[[2-oxo-3-(3-oxo-4H-pyrazino[2,3-b][1,4]oxazin-6-yl)-1-oxa-3,8-diazaspiro[4.5]decan-8-yl]methyl]-2,3-dihydro-1H-inden-5-yl]oxy]-N-methylacetamide], the IC50 is below 97.7 nM.
On the same count and under the same terms, the value for `Cc1c(OCC2(N)CC2)ncc2c1CC(CNCCC1CN(c3ccc4c(n3)NC(=O)CO4)C(=O)O1)C2` (stereo not drawn) [Example 217, 6-[5-[2-[[3-[(1-aminocyclopropyl)methoxy]-4-methyl-6,7-dihydro-5H-cyclopenta[c]pyridin-6-yl]methylamino]ethyl]-2-oxo-1,3-oxazolidin-3-yl]-4H-pyrido[3,2-b][1,4]oxazin-3-one] was below 97.7 nM; that for `CCn1cc(C(=O)O)c(=O)c2ccc3c(c21)CC(CNCCC1CN(c2cnc4c(n2)NC(=O)CO4)C(=O)O1)C3` (stereo not drawn) [Example 276, 1-Ethyl-4-oxo-8-[[2-[2-oxo-3-(3-oxo-4H-pyrazino[2,3-b][1,4]oxazin-6-yl)-1,3-oxazolidin-5-yl]ethylamino]methyl]-8,9-dihydro-7H-cyclopenta[h]quinoline-3-carboxylic acid] was 635 nM; that for `N#Cc1cccc2c1CC(CNCC1CN(c3ccc4c(n3)NC(=O)CO4)C(=O)O1)C2N` (racemic) [Example 229, rac-1,2-trans-1-Amino-2-((((2-oxo-3-(3-oxo-3,4-dihydro-2H-pyrido[3,2-b][1,4]oxazin-6-yl)oxazolidin-5-yl)methyl)amino)methyl)-2,3-dihydro-1H-indene-4-carbonitrile] was 1570 nM.
The same measure, in the same setting: the figure for `Cc1ncc(F)c2c1CC(NCC(O)CC1CN(c3cnc4c(n3)NC(=O)CO4)C(=O)O1)C2` (single isomer, unassigned; isomer a) [Example 313, 6-[2-Oxo-5-[3-[(4-fluoro-1-methyl-6,7-dihydro-5H-cyclopenta[c]pyridin-6-yl)amino]-2-hydroxypropyl]-1,3-oxazolidin-3-yl]-4H-pyrazino[2,3-b][1,4]oxazin-3-one; formic acid, Isomer A] is 1900 nM; for `Cc1c(OCC2(N)CC2)nc(-c2nccs2)c2c1CC(CNCCC1CN(c3ccc4c(n3)NC(=O)CO4)C(=O)O1)C2` (stereo not drawn) [Example 218, 6-[5-[2-[[3-[(1-aminocyclopropyl)methoxy]-4-methyl-1-(1,3-thiazol-2-yl)-6,7-dihydro-5H-cyclopenta[c]pyridin-6-yl]methylamino]ethyl]-2-oxo-1,3-oxazolidin-3-yl]-4H-pyrido[3,2-b][1,4]oxazin-3-one] it is below 97.7 nM.
Take `Cc1ncc(Cl)c2c1CC(CNCCC1CN(c3ccc4c(n3)NC(=O)CS4)C(=O)O1)C2N` (racemic) [Example 264, 3-(3-Oxo-4H-pyrido[3,2-b][1,4]thiazin-6-yl)-5-[2-[[rac-5,6-trans-5-amino-4-chloro-1-methyl-6,7-dihydro-5H-cyclopenta[c]pyridin-6-yl]methylamino]ethyl]-1,3-oxazolidin-2-one]: the IC50 was below 97.7 nM.
On the same count and under the same terms, the value for `CS(=O)(=O)N1CC(Oc2cc(F)c3c(c2)CC(CNCCC2CN(c4cnc5c(n4)NC(=O)CO5)C(=O)O2)C3)C1` (stereo not drawn) [Example 355, 6-[5-[2-[[4-fluoro-6-(1-methylsalfonylazetidin-3-yl)oxy-2,3-dihydro-1H-inden-2-yl]methylamino]ethyl]-2-oxo-1,3-oxazolidin-3-yl]-4H-pyrazino[2,3-b][1,4]oxazin-3-one hydrochloride] was 162 nM.
For `N#Cc1c(OCC2CCN2)ccc2c1CC(CNCCC1CN(c3ccc4c(n3)NC(=O)CO4)C(=O)O1)C2` (stereo not drawn) [Example 137, 5-(azetidin-2-ylmethoxy)-2-[[2-[2-oxo-3-(3-oxo-4H-pyrido[3,2-b][1,4]oxazin-6-yl)-1,3-oxazolidin-5-yl]ethylamino]methyl]-2,3-dihydro-1H-indene-4-carbonitrile; formic acid], the IC50 was determined as 801 nM.
On to `NC1c2cccc(Cl)c2CC1CNCCc1nn(-c2ccc3c(c2)NC(=O)CO3)c(=O)o1` (racemic) [Example 147, 6-[2-oxo-5-[2-[[rac-1,2-trans-1-amino-4-chloro-2,3-dihydro-1H-inden-2-yl]methylamino]ethyl]-1,3,4-oxadiazol-3-yl]-4H-1,4-benzoxazin-3-one; formic acid], for which the IC50 was below 97.7 nM.
Turning to `CC(C)(N)COc1cc(F)c2c(c1)CC(CNCC[C@@H]1CN(c3cnc4c(n3)NC(=O)CO4)C(=O)O1)C2` (stereo partly drawn) [Example 342, 6-[(5R)-5-[2-[[6-(2-amino-2-methylpropoxy)-4-fluoro-2,3-dihydro-1H-inden-2-yl]methylamino]ethyl]-2-oxo-1,3-oxazolidin-3-yl]-4H-pyrazino[2,3-b][1,4]oxazin-3-one; formic acid], the IC50 amounted to 180 nM.
On the same count and under the same terms, the value for `O=C1COc2ccc(N3CC(CCNC4Cc5cccc(Cl)c5C4)OC3=O)nc2N1` (stereo not drawn) [Example 3, 6-[5-[2-[(4-chloro-2,3-dihydro-1H-inden-2-yl)amino]ethyl]-2-oxo-1,3-oxazolidin-3-yl]-4H-pyrido[3,2-b][1,4]oxazin-3-one hydrochloride] was 940 nM.
Still for that read-out and setting: the value for `Cc1ncc(F)c2c1C[C@H](CNCC[C@H]1CN(c3cnc4c(n3)NC(=O)CO4)C(=O)O1)C2` [Example 429] was below 97.7 nM; that for `CC(O)COc1cc(F)c2c(c1)CC(CNCCC1CN(c3cnc4c(n3)NC(=O)CO4)C(=O)O1)C2` (stereo not drawn) [Example 351, 6-[5-[2-[[4-Fluoro-6-(2-hydroxypropoxy)-2,3-dihydro-1H-inden-2-yl]methylamino]ethyl]-2-oxo-1,3-oxazolidin-3-yl]-4H-pyrazino[2,3-b][1,4]oxazin-3-one; hydrochloride] was 144 nM.

The assay is the same for the next values; noted with them: strain Escherichia coli ATCC 25922; 10-point broth dilution, optical density at 600 nm over 16 h; read-out: Escherichia coli growth inhibition IC50.
On to “2-[[2-[2-oxo-3-(3-oxo-4H-pyrazino[2,3-b][1,4]oxazin-6-yl)-1,3-oxazolidin-5-yl]ethylamino]methyl]-6-(1H-triazol-5-ylmethoxy)-2,3-dihydro-1H-indene-4-carbonitrile [Example 426]”, for which the IC50 is 156 nM.
Still for that read-out and setting: the value for `CC(C)(N)COc1cc(F)c2c(c1)CC(CN1CCC3(CC1)CN(c1cnc4c(n1)NC(=O)CO4)C(=O)O3)C2` (single isomer, unassigned; enantiomer b) [Example 378, 6-[8-[[6-(2-Amino-2-methylpropoxy)-4-fluoro-2,3-dihydro-1H-inden-2-yl]methyl]-2-oxo-1-oxa-3,8-diazaspiro[4.5]decan-3-yl]-4H-pyrazino[2,3-b][1,4]oxazin-3-one; formic acid, Enantiomer B] was below 97.7 nM.
